Values after ≈ are worked out from the molar mass of the structure shown.
Columns and labels:
[1] = DPPH radical scavenging assay (antioxidant activity); details: Table S33, positive control ascorbic acid
From the text: The procedures of the DPPH radical scavenging test were the same as Zhong. Ascorbic acid was used as the positive control.

[2] = tested on: Enterococcus faecalis ATCC 29212; assay: Antibacterial assay (MIC), E. faecalis; format: cell-based; details: ATCC29212, Table S32, positive control ciprofloxacin
From the text: (§1) The bacteria Vibrio alginolyticus XSBZ14, Enterococcus faecalis ATCC 29212, Acinetobacter baumannii ATCC 19606, Escherichia coli ATCC 25922, Bacillus subtilis BS01, Klebsiella pneumoniae ATCC 13883, Exiguobacterium profundum Staphylococcus aureus ATCC 29213 and MRSA 107352 were used to measure antibacterial activity. The procedures of the antibacterial test were the same as Zhang. Ciprofloxacin was used as the positive control.

[3] = tested on: Bacillus subtilis BS01; assay: Antibacterial assay (MIC), B. subtilis; format: cell-based; details: Table S32, positive control ciprofloxacin
From the text: as §1

[4] = tested on: Acinetobacter baumannii ATCC 19606; assay: Antibacterial assay (MIC), A. baumannii; format: cell-based; details: ATCC19606, Table S32, positive control ciprofloxacin
From the text: as §1

[5] = tested on: MRSA 107352; assay: Antibacterial assay (MIC), MRSA; format: cell-based; details: Staphylococcus aureus, Table S32, positive control ciprofloxacin
From the text: as §1

[6] = tested on: Exiguobacterium profundum; assay: Antibacterial assay (MIC), E. profundum; format: cell-based; details: Table S32, positive control ciprofloxacin
From the text: as §1

[7] = tested on: Staphylococcus aureus ATCC 29213; assay: Antibacterial assay (MIC), S. aureus; format: cell-based; details: ATCC29213, Table S32, positive control ciprofloxacin
From the text: as §1

[8] = tested on: six bacteria (B. subtilis, E. profundum, E. faecalis, S. aureus, MRSA, A. baumannii); assay: Antibacterial assay, summary over the sensitive bacteria; format: cell-based
From the text: as §1

| SMILES | IC50 [1] | MIC [2] | MIC [3] | MIC [4] | MIC [5] | MIC [6] | MIC [7] | inhibitory activity against bacteria (in words) ([8]; five Gram-positive bacteria (B. subtilis, E. profundum, E. faecalis, S. aureus and MRSA) and one Gram-negative bacterium (A. baumannii)) | MIC ([8]; range over six inhibited bacteria) |
| --- | --- | --- | --- | --- | --- | --- | --- | --- | --- |
| O=C1O[C@H]([C@@H](O)CO)C(O)=C1O [Ascorbic acid, reference compound] | 16.7 ± 0.7 µM |  |  |  |  |  |  |  |  |
| CCC(C)C=C(C)C=CC(=O)Cc1cc(O)c(C)c(O)c1C(=O)O (stereo not shown) [Compound 1, subversin A] |  | > 200 µM | > 200 µM | > 200 µM | > 200 µM | 100 µM (≈ 33.2 µg/mL) | > 200 µM |  |  |
| Cc1cc(O)cc2oc3cc(O)cc(C)c3c12 [Compound 10, 3,7-dihydroxy-1,9-dimethyldibenzofuran] | 48.9 ± 9.8 µM | 25 µM (≈ 5.71 µg/mL) | 0.1 µM (≈ 0.0228 µg/mL) | 50 µM (≈ 11.4 µg/mL) | 12.5 µM (≈ 2.85 µg/mL) | 25 µM (≈ 5.71 µg/mL) | 25 µM (≈ 5.71 µg/mL) | displayed inhibitory activity | 0.1 to 50 µM (≈ 0.0228 to 11.4 µg/mL) |
| COc1c(O)cc(C)cc1Oc1cc(C)cc(O)c1 [Compound 11, 2-methoxyl cordyol C] |  | > 200 µM | > 200 µM | > 200 µM | > 200 µM | 100 µM (≈ 26 µg/mL) | > 200 µM |  |  |
| O=C(O)c1cn(C2CC2)c2cc(N3CCNCC3)c(F)cc2c1=O [ciprofloxacin, Ciprofloxacin, reference compound] |  | 0.8 µM (≈ 0.265 µg/mL) | 0.03 µM (≈ 0.00994 µg/mL) | 0.4 µM (≈ 0.133 µg/mL) | 1.6 µM (≈ 0.53 µg/mL) | 0.2 µM (≈ 0.0663 µg/mL) | 0.8 µM (≈ 0.265 µg/mL) |  |  |

Source: article PMC10971832, “New Phenol Derivatives from the Haima Cold Seep-Derived Fungus Aspergillus subversicolor CYH-17” (Marine Drugs, 2024)
